One assay concerns MCF7shctrl and MCF7shTau. Put plainly: Cell cycle distribution by FACS (propidium iodide and EdU staining). Type of assay: cell-based, human. The conditions noted are these: 100 nM TSA, 48 h. As to the method: FIG. 1: Tau inhibition increases MCF7 breast cancer cell line sensitivity to TSA. (A) Tau protein expression in MCF7, MCF7shctrl and shTau were quantify by Elisa. (B) Effect of 100 nM TSA (48 h) on cell death in the MCF7shctrl and MCF7shTau subclones. Cell death was determined by staining and flow cytometric analysis as described in the materials and methods. (C) Effect of 100 nM TSA (48 h) on apoptosis in the MCF7shctrl and MCF7shTau subclones. Apoptosis was determined by flow cytometric analysis of the PI-positive and Annexin-V-positive cells as described in the materials and methods. (D) Cell cycle distribution was determined by FACS analysis of combined propidium iodide and EdU staining in MCF7shctrl and MCF7shTau in the absence or presence 100 nM TSA, 48 h. Data are mean±SD **P<0.01***P<0.001. All results are representative of three independent experiments.
SH-SY5Y human neuroblastoma cells expressing Tau4R tagged with the streptavidin-binding peptide (SBP) (referred as SH-SY5Y-(SBP)Tau4R) (Chauderlier et al., 2018), SH-SY5Y-Tet-on-Tau4R, Hela cells, MCF7 and MDA-MB-231 were cultured in Dulbecco's Modified Eagle's Medium with 10% fetal bovine serum, 2 mM L-glutamine and 50 U/ml penicillin/streptomycin (Gibco) at 37° C. in 5% CO2 humidified air. Transient and stable transfections experiments were performed using the lipofectamine 3000 reagent (Invitrogen). Transient luciferase assays were performed with the dual-luciferase assay system (Promega). For stable clones, luciferase activities were measured using the luciferase assay system (Promega) and normalized against protein concentration. […]
Cell cycle, Cell death and Apoptosis were analyzed with the Click-It Plus EdU Alexa Fluor 647 kit (Thermofisher), Zombie NIR dye (Zombie NIR Fixable Viability Kit—Biolegend) and Annexin V-FITC Apoptosis Detection Kit II (Calbiochem) according to the manufacturer's guideline. Fluorescence was analyzed using a LSR FORTESSA X20 cytometer (Becton Dickinson).
(A flow cytometer gives signals particle by particle.)

Assay [1] concerns GAL4UAS responsive luciferase reporter Hela stable cell line. The assay can be described thus: GAL4UAS responsive luciferase reporter assay. The assay is classed as cell-based. The conditions noted are these: for reduction of luciferase activity by Tau4R overexpression: wild-type Tau4R transfected. How it is done:
(§1) (A) Representative confocal sections of MCF7shctrl and shTau cells untreated or treated with 100 nM TSA for 24 h. […] (B) Quantification of HP1α clusters per nuclei visualized as described previously and realized on three independent experiments. (C) GADD45a and (D) p21 (CDKN1a) expression in MCF7shctrl and shTau cells untreated or treated with 100 nM TSA for 24 h were analyzed by real-time PCR and normalized to RPLO. Results are expressed, relative to the basal activity set to 1, as the mean±SD of three independent assays. (E) Tau tethering prevents adjacent reporter gene activity induced by TSA. GAL4UAS responsive luciferase reporter Hela stable cell line was transfected with GAL4DBD (GAL4) or GAL4DBD-Tau4R and then, 24 h later, treated with TSA (600 nM) for 24 h. The luciferase activity was determined as described in the Materials and Methods. (F) Ectopic Tau4R expression prevents adjacent reporter gene activity induced by TSA. The GAL4UAS responsive luciferase reporter Hela stable cell line was transfected with a plasmid encoding Tau4R for 24 h. Then, cells were treated with an increasing concentration of TSA, as indicated for 24 h. The luciferase activity was determined as described in the Materials and Methods. Data are mean±SD **P<0.01***P<0.001 vs. control.
SH-SY5Y human neuroblastoma cells expressing Tau4R tagged with the streptavidin-binding peptide (SBP) (referred as SH-SY5Y-(SBP)Tau4R) (Chauderlier et al., 2018), SH-SY5Y-Tet-on-Tau4R, Hela cells, MCF7 and MDA-MB-231 were cultured in Dulbecco's Modified Eagle's Medium with 10% fetal bovine serum, 2 mM L-glutamine and 50 U/ml penicillin/streptomycin (Gibco) at 37° C. in 5% CO2 humidified air. Transient and stable transfections experiments were performed using the lipofectamine 3000 reagent (Invitrogen). Transient luciferase assays were performed with the dual-luciferase assay system (Promega). For stable clones, luciferase activities were measured using the luciferase assay system (Promega) and normalized against protein concentration. To isolate stably transfected clones, Hela cells were transfected with the pGL4.31[luc2P/GAL4 UAS/Hygro](referred to as the GAL4UAS stable Hela cell line) and selected with hygromycin (200 μg/ml). Of 6 clones tested for reporter activity, one clone was chosen for further studies. MCF7 and MDA-MB-231 cells were transfected with short hairpin Tau or RNA Ctrl vectors and selected with puromycin ([…]). Clones were isolated and tested for Tau expression.
To directly probe how Tau prevents TSA-induced chromatin remodeling and gene expression, we next used Hela cells as they lack endogenous Tau. First, we generated a stable GAL4UAS-responsive luciferase reporter Hela clone that we subsequently selected for trichostatin-induced luciferase activity. In our preliminary experiments we found the lowest dose of TSA inducing maximal luciferase activity was 600 nM and we used this concentration in the following experiments. In addition, by performing salt extraction on nuclei, we found only Tau4R isoforms were tightly bound to chromatin and could potentially impact directly on chromatin structure (data not shown). We therefore targeted Tau4R to UAS responsive elements by fusing Tau4R to the heterologous DNA-binding domain GAL4 and transfected this plasmid into Hela stable clone. […] We next wondered if this effect was due to the tethering of Tau4R to the promoter or whether this was independent of Tau4R fusion to GAL4. […]
For orientation: In a reporter assay the amount or activity of a reporter protein is the signal.

The test system of another assay is p21 (CDKN1a). The assay can be described thus: p21 (CDKN1a) expression by real-time PCR. Type of assay: cell-based, human. The note with it: 100 nM TSA, 24 h. As to the method: as §1, with “The GAL4UAS responsive luciferase reporter Hela stable cell line was transfected with a plasmid encoding Tau4R for 24 h. Then, cells were treated with an increasing concentration of TSA, as indicated for 24 h.” left out, “Data are mean±SD **P<0.01***P<0.001 vs. control.” left out
Total RNA was prepared using RNeasyMinikit (Qiagen). Reverse transcription (RT) was performed using random hexamers as recommended by the manufacturer (Applied Biosystems). cDNAs were analyzed by PCR amplification using the TaqMan PCR master mix (Applied Biosystems) and a mix of RPLO primers and probes. […]
For orientation: Quantitative PCR measures a nucleic acid by following its amplification.

In assay [2] the test system is HP1α clusters in MCF7shctrl and shTau cells. Put plainly: HP1α clusters per nucleus, confocal immunofluorescence. Type of assay: cell-based, human. The conditions noted are these: 100 nM TSA, 24 h. How it is done: as §1, with “The GAL4UAS responsive luciferase reporter Hela stable cell line was transfected with a plasmid encoding Tau4R for 24 h. Then, cells were treated with an increasing concentration of TSA, as indicated for 24 h.” left out, “Data are mean±SD **P<0.01***P<0.001 vs. control.” left out
MCF7shctrl, MCF7shTau or transfected Hela cells with Tau4R and GFP-HP1α were fixed in 4% paraformaldehyde for 30 min at room temperature. […] Slides were then analyzed with a Zeiss LSM710 confocal laser scanning microscope (60× magnification). Images were collected in the Z direction at 0.80 μm intervals and quantifications were realized using the Image J plug-in.

The values below come from US20250134952A1, “METHODS FOR IMPROVING THE EFFICACY OF HDAC INHIBITOR THERAPY AND PREDICTING THE RESPONSE TO TREATMENT WITH HDAC INHIBITOR” (INSTITUT NATIONAL DE LA SANTÉ ET DE LA RECHERCHE MÉDICALE, priority 2021, published 2025).

Consider `CC(/C=C/C(=O)NO)=C\[C@@H](C)C(=O)c1ccc(N(C)C)cc1` [TSA, 2,4-Heptadienamide, 7-[4-(dimethylamino)phenyl]-N-hydroxy-4,6-dimethyl-7-oxo-, (2E,4E,6R)-], for which the “cells in G1” value with MCF7shctrl and MCF7shTau (MCF7shTau) came to 41.4%; in the assay on MCF7shctrl and MCF7shTau (MCF7shctrl), 39.6%. Also, in the assay with MCF7shctrl and MCF7shTau (MCF7shctrl), the “cells in S-phase” value worked out at 19.2%. For the same molecule, the “reduction of luciferase activity by Tau4R overexpression” value in assay [1] (100 nM TSA, 24 h) is “around 50%”; in assay [1] (300 nM TSA, 24 h), “around 50%”; in assay [1] (600 nM TSA, 24 h), “no reduction”. The “reduction of TSA-induced luciferase activity in the presence of GAL-Tau4R” value in assay [1] (TSA 600 nM, 24 h, GAL4DBD-Tau4R transfected) worked out at 50%. Moreover, the “lowest dose of TSA inducing maximal luciferase activity” value in assay [1] (preliminary experiments, Hela stable clone) was 600 nM. The “p21 induction (RT-qPCR)” value with p21 (CDKN1a) (MCF7shctrl cells, relative to basal) stood at 2.5 fold. Further, the “p21 upregulation by TSA” value in the assay with p21 (CDKN1a) (cells with reduced Tau expression (MCF7shTau) vs MCF7shctrl) is reported as “exacerbated”. Also, the “HP1α clusters per nucleus” value in assay [2] (Tau knocked down MCF7 cells) is recorded as 3 clusters; in assay [2] (sh-control MCF7 cells), “five”.
